These are literature values, as cited in patent publication US20250231185A1, “Coronavirus T Cell Epitopes, Megapools and Uses Thereof” (La Jolla Institute for Immunology, priority 2021, published 2025).

This data set concerns CD8+ T cells. As to conditions: SARS-CoV-2 Ag S; T cell type recognizing the epitope; cited from earlier work.
On to 1328 (KFLPFQQFGR) [compound 1328], for which the Restriction result is on record as “CD8”.
Turning to 1329 (DAVRDPQTL) [compound 1329], the Restriction entry is “CD8”.
1331 (TPCSFGGVSV) [compound 1331]: the Restriction result was “CD8”.
Turning to 1332 (NTSNQVAVLY) [compound 1332], the Restriction result was “CD8”.
Take 1333 (TSNQVAVLY) [compound 1333]: the Restriction entry is listed as “CD8”.
As for 1334 (YQDVNCTEV) [compound 1334], the Restriction result is given as “CD8”.
In the case of 1336 (IHADQLTPTW) [compound 1336], the Restriction result was “CD8”.
With 1337 (QLTPTWRVY) [compound 1337], the Restriction entry is reported as “CD8”.
1338 (RVYSTGSNV) [compound 1338]: the Restriction entry is listed as “CD8”.
Consider 1339 (RVYSTGSNVF) [compound 1339], for which the Restriction entry is reported as “CD8”.
Turning to 1341 (STGSNVFQTR) [compound 1341], the Restriction entry is listed as “CD8”.
With 1343 (AEHVNNSY) [compound 1343], the Restriction result is given as “CD8”.
For the substance 1344 (YECDIPIGAGI) [compound 1344], the Restriction result is listed as “CD8”.
On to 1346 (QTNSPRRAR) [compound 1346], for which the Restriction entry is reported as “CD8”.
With 1348 (SPRRARSV) [compound 1348], the Restriction entry was “CD8”.
Regarding 1349 (RSVASQSII) [compound 1349], the Restriction entry is reported as “CD8”.
On to 1354 (LGAENSVAY) [compound 1354], for which the Restriction entry is “CD8”.
As to 1356 (AYSNNSIAI) [compound 1356], the Restriction entry is reported as “CD8”.
For 1357 (NSIAIPTNF) [compound 1357], the Restriction entry is listed as “CD8”.
For the substance 1358 (IAIPTNFTI) [compound 1358], the Restriction entry was “CD8”.
As to 1359 (IPTNFTISV) [compound 1359], the Restriction result was “CD8”.
In the case of 1364 (KTSVDCTMYI) [compound 1364], the Restriction entry is listed as “CD8”.
On to 1368 (GSFCTQLNR) [compound 1368], for which the Restriction entry is listed as “CD8”.
In the case of 1369 (TQLNRALTGI) [compound 1369], the Restriction entry is reported as “CD8”.
For the substance 1370 (QEVFAQVKQIY) [compound 1370], the Restriction entry is reported as “CD8”.
As to 1372 (EVFAQVKQI) [compound 1372], the Restriction entry was “CD8”.
On to 1373 (EVFAQVKQIY) [compound 1373], for which the Restriction entry is on record as “CD8”.
On to 1374 (VFAQVKQIY) [compound 1374], for which the Restriction entry is listed as “CD8”.
As for 1376 (IYKTPPIKDF) [compound 1376], the Restriction entry is on record as “CD8”.
For the substance 1377 (ILPDPSKPSK) [compound 1377], the Restriction result was “CD8”.
Regarding 1378 (SFIEDLLF) [compound 1378], the Restriction result is given as “CD8”.
1380 (TLADAGFIK) [compound 1380]: the Restriction result is on record as “CD8”.
With 1381 (LADAGFIKQY) [compound 1381], the Restriction result is listed as “CD8”.
For 1382 (ADAGFIKQY) [compound 1382], the Restriction entry is “CD8”.
Turning to 1383 (GLTVLPPLL) [compound 1383], the Restriction entry is “CD8”.
Consider 1384 (LPPLLTDEM) [compound 1384], for which the Restriction result is “CD8”.
Turning to 1385 (LLTDEMIAQY) [compound 1385], the Restriction entry is on record as “CD8”.
On to 1387 (LTDEMIAQYT) [compound 1387], for which the Restriction result was “CD8”.
Consider 1388 (TDEMIAQY) [compound 1388], for which the Restriction entry is on record as “CD8”.
As to 1391 (WTFGAGAAL) [compound 1391], the Restriction entry is given as “CD8”.
For 1393 (QIPFAMQMAY) [compound 1393], the Restriction entry is reported as “CD8”.
As to 1394 (IPFAMQMAY) [compound 1394], the Restriction entry is recorded as “CD8”.
On to 1395 (FAMQMAYRF) [compound 1395], for which the Restriction entry is “CD8”.
For 1397 (YENQKLIANQF) [compound 1397], the Restriction entry is listed as “CD8”.
